# Test results published in PMC11992225, “Antibacterial compounds against non-growing and intracellular bacteria” (npj Antimicrobials and Resistance, 2025).
# Like-named read-outs stand apart in the source and are kept apart here.
# Tested on: non-growing S. aureus DSM2569
# Assay: Dilution-regrowth assay (OD600, start-growth-time) on stationary-phase S. aureus
# Format: cell-based, Staphylococcus aureus
# Details: S. aureus; for Regrowth, OD600 at 6h or 8h after dilution into drug-free medium: average; for EC50: regrowth delay of non-growing bacteria, 1:4 CA-MHB pH 7.4, 24 h treatment, OD600 8 h after dilution, read-out: EC50; for Regrowth: OD600 after dilution into drug-free medium (mean): OD600 at 6h or 8h
# Protocol: The cultures were grown and treated for 24 h in 1:4 CA-MHB (pH 7.4).
# This approach allowed us to capture the time when cultures reached a threshold optical density (start-growth-time, SGT[15]).
# The cultures were incubated for 24 h in non-baffled Erlenmeyer flasks at 37 °C with shaking at 200 rpm.
# For P. aeruginosa and S. aureus, dose–response analysis was conducted in 96-well plates with a 200 μl assay volume, following the procedure used for screening assay validation experiments. […] Stock solutions were prepared and stored according to the manufacturers’ instructions, then diluted in 10% DMSO before use. Cultures were incubated for 24 h in 1:4 diluted CA-MHB medium under the same conditions used for UPEC cultivation. In preliminary experiments, each compound was tested at a concentration of 20 μM in the dilution-regrowth assay with 4 technical replicates. Regrowth was monitored using a microplate reader at 37 °C with continuous shaking, and OD600 was recorded every 20 min. The time at which OD600 exceeded the threshold of 0.12 was recorded as the Start_Growth-Time.
# Statistical significance of the drug effects was assessed using a one-way ANOVA followed by Dunnett’s test, comparing each treatment to the drug-free control. Statistical significance of the differences in chemical characteristics between the hit compounds and the Prestwick library was assessed using a Mann–Whitney test. Statistical significance was set at P ≤ 0.05. A five-parameter logistic equation was used for asymmetric sigmoidal curve fitting and for EC50 and IC50 determination. The Venn diagram in Fig. 1F was prepared using BioVenn web application. Characteristics of the chemical and physical properties of Prestwick library compounds were obtained from Supplementary Table S1 from reference. Characteristics of the hit compounds not included in the Prestwick library were retrieved from the PubChem database.
compound,measurement,setting,value
N[C@@H]1CCCCN(c2c(F)cc3c(=O)c(C(=O)O)cn(C4CC4)c3c2Cl)C1 [Besifloxacin],"Regrowth, OD600 at 6h or 8h after dilution into drug-free medium",concentration 0.1,0.576
same,"Regrowth, OD600 at 6h or 8h after dilution into drug-free medium",concentration 0.5,0.336
same,"Regrowth, OD600 at 6h or 8h after dilution into drug-free medium",concentration 2.5,0.134
same,"Regrowth, OD600 at 6h or 8h after dilution into drug-free medium",concentration 10,0.097
same,EC50,"Staphylococcus aureus, DSM2569",401 nM
NC1CCN(c2c(F)cc3c(=O)c(C(=O)O)cn(C4CC4)c3c2Cl)C1 (stereo not drawn) [Clinafloxacin],OD600 at 6h or 8h after dilution into drug-free medium (regrowth),drug conc 0.1,0.489
same,OD600 at 6h or 8h after dilution into drug-free medium (regrowth),drug conc 0.5,0.280
same,OD600 at 6h or 8h after dilution into drug-free medium (regrowth),drug conc 2.5,0.154
same,OD600 at 6h or 8h after dilution into drug-free medium (regrowth),drug conc 10,0.126
same,EC50,"Staphylococcus aureus, DSM2569",205 nM
CO[C@H]1/C=C/O[C@@]2(C)Oc3c(C)c(O)c4c(O)c(c(/C=N/N=C/N5CCCCC5)c(O)c4c3C2=O)NC(=O)/C(C)=C\C=C\[C@H](C)[C@H](O)[C@@H](C)[C@@H](O)[C@@H](C)[C@H](OC(C)=O)[C@@H]1C [FCE-22250],Regrowth: OD600 after dilution into drug-free medium (mean),concentration 0.1,0.461
same,Regrowth: OD600 after dilution into drug-free medium (mean),concentration 0.5,0.312
same,Regrowth: OD600 after dilution into drug-free medium (mean),concentration 2.5,0.178
same,Regrowth: OD600 after dilution into drug-free medium (mean),concentration 10,0.092
same,EC50,,278 nM
N#Cc1c(N2C[C@@H]3NCCO[C@H]3C2)c(F)cc2c(=O)c(C(=O)O)cn(C3CC3)c12 [Finafloxacin],EC50,,4660 nM
COc1c(N2C[C@@H]3CCCN[C@@H]3C2)c(F)cc2c(=O)c(C(=O)O)cn(C3CC3)c12 [Moxifloxacin],"Regrowth, OD600 at 6h or 8h after dilution into drug-free medium",concentration 0.1,0.607
same,"Regrowth, OD600 at 6h or 8h after dilution into drug-free medium",concentration 0.5,0.484
same,"Regrowth, OD600 at 6h or 8h after dilution into drug-free medium",concentration 2.5,0.330
same,"Regrowth, OD600 at 6h or 8h after dilution into drug-free medium",concentration 10,0.150
same,EC50,"Staphylococcus aureus, DSM2569",4820 nM
CCCCCCCCN=c1ccn(CCCCCCCCCCn2ccc(=NCCCCCCCC)cc2)cc1 [Octenidine],"Regrowth, OD600 at 6h or 8h after dilution into drug-free medium",concentration 0.1,0.879
same,"Regrowth, OD600 at 6h or 8h after dilution into drug-free medium",concentration 0.5,0.554
same,"Regrowth, OD600 at 6h or 8h after dilution into drug-free medium",concentration 2.5,0.478
same,"Regrowth, OD600 at 6h or 8h after dilution into drug-free medium (average)",drug concentration 10,0.086
same,EC50,"Staphylococcus aureus, DSM2569",3300 nM
CO[C@H]1/C=C/O[C@@]2(C)Oc3c(C)c(O)c4c(c3C2=O)C2=NC3(CCN(CC(C)C)CC3)NC2=C(NC(=O)/C(C)=C\C=C\[C@H](C)[C@H](O)[C@@H](C)[C@@H](O)[C@@H](C)[C@H](OC(C)=O)[C@@H]1C)C4=O [Rifabutin],Regrowth: OD600 after dilution into drug-free medium (mean),concentration 0.1,0.129
same,Regrowth: OD600 after dilution into drug-free medium (mean),concentration 0.5,0.135
same,Regrowth: OD600 after dilution into drug-free medium (mean),concentration 2.5,0.130
same,Regrowth: OD600 after dilution into drug-free medium (mean),concentration 10,0.096
same,EC50,"Staphylococcus aureus, DSM2569",32 nM
CO[C@H]1/C=C/O[C@@]2(C)Oc3c(C)c(O)c4c(O)c(c(/C=N/N5CCN(C6CCCC6)CC5)c(O)c4c3C2=O)NC(=O)/C(C)=C\C=C\[C@H](C)[C@H](O)[C@@H](C)[C@@H](O)[C@@H](C)[C@H](OC(C)=O)[C@@H]1C [Rifapentine],Regrowth: OD600 after dilution into drug-free medium (mean),concentration 0.1,0.215
same,Regrowth: OD600 after dilution into drug-free medium (mean),concentration 0.5,0.149
same,Regrowth: OD600 after dilution into drug-free medium (mean),concentration 2.5,0.116
same,Regrowth: OD600 after dilution into drug-free medium (mean),concentration 10,0.091
same,EC50,"Staphylococcus aureus, DSM2569",41 nM
O=C(O)c1cn(-c2ccc(F)cc2)c2cc(N3CCNCC3)c(F)cc2c1=O [Sarafloxacin],EC50,"Staphylococcus aureus, DSM2569",662 nM
N[C@@H]1CN(c2c(F)cc3c(=O)c(C(=O)O)cn([C@@H]4C[C@@H]4F)c3c2Cl)CC12CC2 [Sitafloxacin],EC50,,106 nM
NC1CCN(c2nc3c(cc2F)c(=O)c(C(=O)O)cn3-c2ccc(F)cc2F)C1 (stereo not drawn) [Tosufloxacin],EC50,"Staphylococcus aureus, DSM2569",328 nM
